Experiments:
Androgen receptor [1] = molecular target: T1, Androgen receptor (Homo sapiens, UniProt P10275)
T1 sequence (P10275 whole entry): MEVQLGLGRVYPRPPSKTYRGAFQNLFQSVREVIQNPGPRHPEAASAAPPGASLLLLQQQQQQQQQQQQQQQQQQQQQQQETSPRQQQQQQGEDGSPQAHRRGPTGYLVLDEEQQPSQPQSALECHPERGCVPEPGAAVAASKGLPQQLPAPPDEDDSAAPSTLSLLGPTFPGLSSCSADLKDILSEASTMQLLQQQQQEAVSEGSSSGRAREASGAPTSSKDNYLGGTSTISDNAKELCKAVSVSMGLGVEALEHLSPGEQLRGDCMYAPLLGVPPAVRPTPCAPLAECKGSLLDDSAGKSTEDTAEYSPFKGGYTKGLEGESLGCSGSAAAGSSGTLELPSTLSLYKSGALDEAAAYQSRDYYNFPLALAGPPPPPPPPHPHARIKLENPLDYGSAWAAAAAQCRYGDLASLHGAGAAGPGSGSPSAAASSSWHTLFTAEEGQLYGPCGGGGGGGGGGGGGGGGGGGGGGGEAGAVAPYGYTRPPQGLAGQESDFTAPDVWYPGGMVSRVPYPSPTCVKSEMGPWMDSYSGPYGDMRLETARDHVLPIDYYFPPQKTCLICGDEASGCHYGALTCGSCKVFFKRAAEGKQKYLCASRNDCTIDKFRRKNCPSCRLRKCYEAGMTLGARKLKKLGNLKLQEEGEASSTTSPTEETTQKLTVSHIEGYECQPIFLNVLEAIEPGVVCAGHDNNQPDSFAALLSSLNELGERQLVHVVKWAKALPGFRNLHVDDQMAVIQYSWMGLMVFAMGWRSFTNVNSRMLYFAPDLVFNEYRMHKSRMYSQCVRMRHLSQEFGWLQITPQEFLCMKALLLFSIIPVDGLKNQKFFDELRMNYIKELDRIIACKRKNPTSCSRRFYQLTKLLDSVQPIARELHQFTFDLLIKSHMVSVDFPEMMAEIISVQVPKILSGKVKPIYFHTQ
Description: Binding affinity to human AR

Androgen receptor [2] = molecular target: T1, Androgen receptor; remark: listed apart in the source
Description: Antagonist activity at human androgen receptor by luciferase reporter gene assay

Androgen receptor [3] = molecular target: T1, Androgen receptor; remark: listed apart in the source
Description: Agonist activity at human androgen receptor by luciferase reporter gene assay

[4] = Half life in Sprague-Dawley rat at 2.5 mg/kg, iv; type: ADME, organism-based; set-up: dose 2.5 mg/kg, route intravenous; settings: in vivo
[5] = Bioavailability in Sprague-Dawley rat at 10 mg/kg, po; type: ADME, organism-based; settings: in vivo
[6] = AUC (0 to infinity) in Sprague-Dawley rat at 10 mg/kg, po; type: ADME, organism-based; set-up: time infinity, dose 10 mg/kg, route oral; settings: plasma
[7] = Anabolic effect as increased levator ani muscle weight in orchidectomized rat model at doses > 1 mg/kg; type: functional, organism-based; set-up: dose 1 mg/kg
[8] = Bioavailability in Sprague-Dawley rat at 14.6 mg/kg, po; type: ADME, organism-based; settings: in vivo
[9] = AUC (0 to infinity) in Sprague-Dawley rat at 14.6 mg/kg, po; type: ADME, organism-based; set-up: time infinity, dose 14.6 mg/kg, route oral; settings: plasma
[10] = molecular target: T2, Mineralocorticoid receptor (Homo sapiens, UniProt P08235); test: Binding affinity to MR
T2 sequence (P08235 whole entry): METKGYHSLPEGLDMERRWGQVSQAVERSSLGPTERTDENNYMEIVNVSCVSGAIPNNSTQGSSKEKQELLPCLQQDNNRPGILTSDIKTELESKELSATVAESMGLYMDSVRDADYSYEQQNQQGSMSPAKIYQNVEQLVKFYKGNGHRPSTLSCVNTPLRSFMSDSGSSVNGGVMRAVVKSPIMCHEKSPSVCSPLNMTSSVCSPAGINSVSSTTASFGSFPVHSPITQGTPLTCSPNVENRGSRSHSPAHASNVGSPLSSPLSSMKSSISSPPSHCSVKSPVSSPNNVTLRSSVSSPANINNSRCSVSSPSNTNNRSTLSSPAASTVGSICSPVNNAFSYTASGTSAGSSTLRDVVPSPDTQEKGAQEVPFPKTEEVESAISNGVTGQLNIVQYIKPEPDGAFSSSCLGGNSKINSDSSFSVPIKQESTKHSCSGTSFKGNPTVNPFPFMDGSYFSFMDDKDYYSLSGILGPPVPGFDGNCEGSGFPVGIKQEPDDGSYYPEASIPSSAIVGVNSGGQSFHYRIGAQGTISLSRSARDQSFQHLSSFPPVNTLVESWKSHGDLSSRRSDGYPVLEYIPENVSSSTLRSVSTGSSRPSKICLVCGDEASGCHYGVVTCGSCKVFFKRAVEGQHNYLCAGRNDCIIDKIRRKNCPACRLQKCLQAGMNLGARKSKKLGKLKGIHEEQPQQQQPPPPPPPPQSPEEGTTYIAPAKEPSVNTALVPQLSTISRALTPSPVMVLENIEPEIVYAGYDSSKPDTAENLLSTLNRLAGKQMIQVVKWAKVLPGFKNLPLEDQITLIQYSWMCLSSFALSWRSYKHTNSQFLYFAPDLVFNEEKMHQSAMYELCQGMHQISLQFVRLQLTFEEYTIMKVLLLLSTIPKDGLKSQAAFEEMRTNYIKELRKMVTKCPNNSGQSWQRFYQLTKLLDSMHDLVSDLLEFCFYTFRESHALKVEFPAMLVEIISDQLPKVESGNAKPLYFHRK

Progesterone receptor = molecular target: T3, Progesterone receptor (Homo sapiens, UniProt P06401); test: Binding affinity to PR
T3 sequence (P06401 whole entry): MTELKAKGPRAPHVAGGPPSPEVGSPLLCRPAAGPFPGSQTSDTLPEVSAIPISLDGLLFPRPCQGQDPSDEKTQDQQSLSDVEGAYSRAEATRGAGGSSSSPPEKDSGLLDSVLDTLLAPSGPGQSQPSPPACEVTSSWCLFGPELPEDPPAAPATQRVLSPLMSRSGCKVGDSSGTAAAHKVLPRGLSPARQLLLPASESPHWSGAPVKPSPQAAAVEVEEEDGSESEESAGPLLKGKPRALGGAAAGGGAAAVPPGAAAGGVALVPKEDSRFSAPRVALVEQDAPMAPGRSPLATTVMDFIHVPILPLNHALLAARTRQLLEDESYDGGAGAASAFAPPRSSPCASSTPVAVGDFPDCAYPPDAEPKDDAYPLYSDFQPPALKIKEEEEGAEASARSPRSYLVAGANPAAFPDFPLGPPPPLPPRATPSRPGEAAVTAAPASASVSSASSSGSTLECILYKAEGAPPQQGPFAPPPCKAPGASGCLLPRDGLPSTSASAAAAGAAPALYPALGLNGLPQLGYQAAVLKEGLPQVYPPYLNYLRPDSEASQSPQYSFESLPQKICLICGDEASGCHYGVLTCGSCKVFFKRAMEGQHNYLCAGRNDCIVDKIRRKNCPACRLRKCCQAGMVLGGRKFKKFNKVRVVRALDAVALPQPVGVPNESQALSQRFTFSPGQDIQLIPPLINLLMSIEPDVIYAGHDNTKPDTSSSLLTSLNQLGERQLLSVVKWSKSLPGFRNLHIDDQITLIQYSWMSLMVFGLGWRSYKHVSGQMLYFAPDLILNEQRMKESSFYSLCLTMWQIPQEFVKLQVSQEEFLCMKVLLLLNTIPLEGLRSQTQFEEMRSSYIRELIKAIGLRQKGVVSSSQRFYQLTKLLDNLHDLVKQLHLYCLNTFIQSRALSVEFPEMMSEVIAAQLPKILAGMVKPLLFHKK

Glucocorticoid receptor = molecular target: T4, Glucocorticoid receptor (Homo sapiens, UniProt P04150); test: Binding affinity to GR
T4 sequence (P04150 whole entry): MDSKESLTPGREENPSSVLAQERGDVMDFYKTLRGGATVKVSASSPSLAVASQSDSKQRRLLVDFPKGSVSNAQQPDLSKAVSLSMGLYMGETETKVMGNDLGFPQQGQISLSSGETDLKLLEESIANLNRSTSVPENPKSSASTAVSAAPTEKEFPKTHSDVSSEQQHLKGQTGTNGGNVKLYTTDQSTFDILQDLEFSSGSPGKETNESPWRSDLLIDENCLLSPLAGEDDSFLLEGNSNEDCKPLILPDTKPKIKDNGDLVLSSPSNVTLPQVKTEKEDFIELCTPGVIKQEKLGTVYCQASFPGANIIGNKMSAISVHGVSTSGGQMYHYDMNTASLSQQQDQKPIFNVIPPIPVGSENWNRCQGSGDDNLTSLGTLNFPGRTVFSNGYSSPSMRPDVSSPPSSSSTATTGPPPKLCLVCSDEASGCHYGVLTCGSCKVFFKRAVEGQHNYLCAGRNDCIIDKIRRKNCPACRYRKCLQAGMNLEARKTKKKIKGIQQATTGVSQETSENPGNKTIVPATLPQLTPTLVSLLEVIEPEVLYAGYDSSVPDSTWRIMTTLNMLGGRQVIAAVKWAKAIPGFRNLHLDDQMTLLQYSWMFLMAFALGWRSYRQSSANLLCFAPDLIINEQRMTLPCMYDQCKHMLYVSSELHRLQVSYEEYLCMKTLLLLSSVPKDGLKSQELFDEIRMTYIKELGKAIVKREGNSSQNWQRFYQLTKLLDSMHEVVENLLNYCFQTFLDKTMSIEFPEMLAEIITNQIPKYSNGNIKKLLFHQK

Estrogen receptor = molecular target: T5, Estrogen receptor (Homo sapiens, UniProt P03372); test: Binding affinity to ERalpha
T5 sequence (P03372 whole entry): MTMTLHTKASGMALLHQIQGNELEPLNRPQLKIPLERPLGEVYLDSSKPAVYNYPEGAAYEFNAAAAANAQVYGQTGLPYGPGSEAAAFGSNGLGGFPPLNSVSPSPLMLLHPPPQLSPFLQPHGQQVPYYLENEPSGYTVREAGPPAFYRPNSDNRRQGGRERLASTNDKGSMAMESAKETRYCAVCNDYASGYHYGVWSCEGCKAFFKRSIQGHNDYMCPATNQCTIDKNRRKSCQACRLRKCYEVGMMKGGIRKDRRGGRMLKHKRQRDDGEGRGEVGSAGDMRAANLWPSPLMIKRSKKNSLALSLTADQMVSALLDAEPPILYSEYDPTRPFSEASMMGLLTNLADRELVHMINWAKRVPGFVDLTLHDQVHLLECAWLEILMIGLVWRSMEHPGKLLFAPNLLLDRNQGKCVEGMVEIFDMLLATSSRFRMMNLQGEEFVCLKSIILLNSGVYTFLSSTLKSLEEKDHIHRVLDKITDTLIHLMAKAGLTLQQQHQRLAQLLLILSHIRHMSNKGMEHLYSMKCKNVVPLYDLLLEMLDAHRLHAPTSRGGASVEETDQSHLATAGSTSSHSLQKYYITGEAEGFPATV

| SMILES | Ki (Androgen receptor [1]) | IC50 (Androgen receptor [2]) | EC50 (Androgen receptor [3]) | also measured |
| --- | --- | --- | --- | --- |
| CC1CCCN1c1ccc2[nH]c(=O)cc(C(F)(F)F)c2c1 (racemic) | 72 nM | > 10000 nM | – | – |
| C[C@@H]1CC[C@@H](C)N1c1ccc2[nH]c(=O)cc(C(F)(F)F)c2c1 (racemic) | 43 nM | > 10000 nM | 48 nM | – |
| C[C@@H]1CC[C@H](CCl)N1c1ccc2[nH]c(=O)cc(C(F)(F)F)c2c1 | 10 nM | > 10000 nM | 12 nM | – |
| O=c1cc(C(F)(F)F)c2cc(N(CC(F)(F)F)CC(F)(F)F)ccc2[nH]1 | – | – | – | half-life [4]: 1.7 h; bioavailability [5]: 43%; AUC(0-inf) [6]: 3150 ng·h/mL |
| C[C@@H]1CC[C@H]([C@H](O)C(F)(F)F)N1c1ccc2[nH]c(=O)cc(C(F)(F)F)c2c1 | 7.6 nM | > 10000 nM | 8.4 nM | – |
| C[C@@H]1CC[C@H](C)N1c1ccc2[nH]c(=O)cc(C(F)(F)F)c2c1 | 19 nM | > 10000 nM | 2.6 nM | – |
| C[C@@H]1CC[C@H](CO)N1c1ccc2[nH]c(=O)cc(C(F)(F)F)c2c1 | 70 nM | > 10000 nM | 21 nM | – |
| O=c1cc(C(F)(F)F)c2cc(N3CCCC3)ccc2[nH]1 | 1700 nM | 25 nM | > 10000 nM | – |
| C[C@@H]1CC[C@H]([C@@H](O)C(F)(F)F)N1c1ccc2[nH]c(=O)cc(C(F)(F)F)c2c1 [LGD-2941] | 1.5 nM | > 10000 nM | 7.1 nM | half-life [4]: 2.7 h; Anabolic activity [7]: Anabolic; bioavailability [8]: 100%; AUC(0-inf) [9]: 11800 ng·h/mL; Ki [10]: > 10000 nM; Ki (Progesterone receptor): 2500 nM; Ki (Glucocorticoid receptor): 8300 nM; Ki (Estrogen receptor): > 10000 nM |
